In publication PMC11036078, “PD‐1 inhibition with retifanlimab and/or arginase inhibition with INCB001158 in Japanese patients with solid tumors: A phase I study” (Cancer Medicine, 2024):
Read-outs that look alike come from different tables or passages of the source.

Key:
[1] = Safety and tolerability (TEAEs, DLTs, irAEs; NCI CTCAE v5.0), phase Ib POD1UM-104; conditions: in vivo
Method: This was a phase Ib, open‐label, multicenter study (POD1UM‐104 [NCT03910530]). The study was conducted in 2 parts. In Part 1, patients received single‐agent retifanlimab or escalating doses of single‐agent INCB001158 to confirm the RP2D of each agent. Single‐agent dosing was performed to comply with local regulations. In Part 2, patients received the combination of retifanlimab and INCB001158 at their respective RP2D determined in Part 1, to further explore safety and preliminary evidence of clinical activity. Treatment cycles in Part 1 and Part 2 were 28 days, and patients could receive treatment for up to 2 years, or until disease progression, unacceptable toxicity, death, or patient withdrawal.
In Part 1, 6 patients received retifanlimab 500 mg every 4 weeks (Q4W), given as an i.v. infusion over 60 min; this dose was based on the RP2D determined from global studies. The starting dose of INCB001158 was 75 mg taken orally twice daily (BID). Dose escalation of INCB001158 followed a standard 3 + 3 design; if 75 mg BID was deemed to be tolerable in at least 3 patients, a 100‐mg BID dose level cohort comprising at least 3 patients would be opened.
DLTs were assessed by the investigator according to the National Cancer Institute (NCI) Common Terminology Criteria for Adverse Events (CTCAE) v5.0 criteria (Table S1).
The primary endpoints of the study were safety, tolerability, DLTs, and RP2D of single‐agent retifanlimab, INCB001158, and the combination. Adverse events (AEs) were graded by NCI CTCAE v5.0, and immune‐related adverse events (irAEs) were monitored as AEs of special interest. Physical examinations, monitoring of vital signs, electrocardiograms, and laboratory assessments were conducted throughout the study.
Safety and efficacy analyses were conducted in the full analysis set, which comprised all enrolled patients who received at least 1 dose of the study drug.
Safety data were summarized using descriptive statistics. PK parameters were summarized by study part, treatment regimen, cohort, dose levels, and/or visit. ORR and DCR were reported with their exact 95% confidence intervals (CIs); DOR was based on the Kaplan–Meier estimate of the distribution function, and the estimated median along with 95% CI was reported. Statistical analyses were performed using SAS® software v9.4 or later (SAS Institute Inc., Cary, NC, USA).

[2] = INCB001158 plasma pharmacokinetics (LC-MS/MS, noncompartmental analysis); assay type: in vivo, Japanese patients; conditions: for Cmax: read-out: INCB001158 geometric mean Cmax
Method: Pharmacokinetics of single‐agent retifanlimab and INCB001158, and the combination, were secondary endpoints of the study. The detection of anti‐drug antibodies (ADAs) was an exploratory endpoint. Blood samples for retifanlimab PK assessments were taken on days 1 (−2 h pre‐dose, end of infusion, and 6 h post‐dose), 2, 8, and 15 (no specified time) of cycle 1, day 1 of cycles 2–8 (−2 h pre‐dose, and end of infusion on cycles 2 and 6 only), and day 1 of every 4 cycles after cycle 8 (−2 h pre‐dose). Samples for ADA assessment were collected at the same time as for PK analysis, and an additional sample was collected at safety follow‐up on day 15 (no specified time). Blood samples for INCB001158 were collected pre‐dose, 0.5, 1, 2, 4, 6, and 8 h post‐dose on days 1 and 15 of cycle 1, 12 h post‐dose on day 1 of cycle 1, and pre‐dose on days 2 and 8 for cycle 1, and day 1 of cycle 2. Serum concentrations of retifanlimab were determined using an electrochemiluminescence immunoassay method, and plasma concentrations of INCB001158 were measured using a validated liquid chromatography with tandem mass spectrometry assay (Incyte Corporation, Wilmington, DE, USA). ADAs against retifanlimab were monitored using a bridging immunoassay (Incyte Corporation).
Pharmacokinetics parameters were derived from concentrations versus time data using model‐independent noncompartmental analysis methods (WinNonlin v8.2, Certara USA Inc., Princeton, NJ, USA), and included maximum observed serum or plasma concentration (C max), serum or plasma concentration observed at the end of the dosing interval (C tau), time to maximum observed serum or plasma concentration (t max), area under the serum or plasma concentration–time curve (AUC) from time 0 to the end of the dosing interval (AUCtau), AUC from time 0 to infinity (AUC0‐∞), apparent terminal‐phase disposition half‐life, clearance, and volume of distribution. […]

arginase [3] = experiment: Pharmacodynamics: plasma arginine levels; assay type: in vivo, Japanese patients; conditions: change from baseline
Method: (§1) Pharmacodynamics of INCB001158 alone or in combination were assessed as an exploratory objective. Urine was collected at regular intervals from patients in the INCB001158 monotherapy and combination groups to assess urinary orotic acid levels and evaluate whether INCB001158 inhibits the urea cycle. Plasma samples from patients in these groups were also assessed for ammonia, arginine, and ornithine levels.

urea cycle = experiment: Pharmacodynamics: urinary orotic acid and plasma ammonia (urea cycle inhibition); assay type: in vivo, Japanese patients
Method: as §1

[4] = test system: advanced/metastatic solid tumours; conditions: cited from earlier work
T‐cell proliferation = test system: T‐cell proliferation; set-up: method as in PMID 29254508; conditions: preclinical; cited from earlier work
arginase [5] = test system: arginase; set-up: method as in earlier work; conditions: phase I/II studies; cited from earlier work
[6] = steady-state, 100 mg BID oral, monotherapy: two individual values (n = 2), combination n = 5 mean ± SD (geometric mean)
[7] = INCB001158 monotherapy, 33 patients with microsatellite‐stable metastatic colorectal cancer
[8] = in combination with gemcitabine/cisplatin, phase I/II, advanced biliary tract cancer
[9] = in combination with pembrolizumab, 43 patients with microsatellite‐stable colorectal cancer

SMILES: C[C@H](N)C(=O)N1C[C@H](CCCB(O)O)[C@](N)(C(=O)O)C1 [INCB001158]
- Serious TEAEs (terms) ([1]; human): grade 2 inguinal hernia (n = 1)
- TEAE: ALT increased ([1]; human): 0 n (%)
- TEAE: AST increased ([1]; human): 0 n (%)
- TEAE: Amylase increased ([1]; human): 0 n (%)
- TEAE: Anemia ([1]; human): 1 (16.7) n (%)
- TEAE: Blood creatinine increased ([1]; human): 0 n (%)
- TEAE: Diarrhea ([1]; human): 1 (16.7) n (%)
- TEAE: Nausea ([1]; human): 0 n (%)
- TEAE: Pruritus ([1]; human): 0 n (%)
- TEAE: Pyrexia ([1]; human): 0 n (%)
- TEAE: Rash ([1]; human): 0 n (%)
- TRAEs reported (terms) ([1]; human): diarrhea (n = 1) and anemia and hyperbilirubinemia (n = 1)
- Treatment discontinuation because of a TEAE ([1]; human): 0 n (%)
- Grade 3 AEs reported but not occurring during the treatment window [1]: anemia
- PK of INCB001158 in combination with retifanlimab versus INCB001158 monotherapy ([2]; Japanese patients): comparable
- Drug–drug interaction (INCB001158 PK, combination vs monotherapy cohorts) ([2]; combination cohort): no drug–drug interaction
- AUC ([2]; human, plasma, oral, 100 mg, first dose, 100 mg BID monotherapy, read-out: INCB001158 geometric mean AUC0‐∞): 17900 ng·h/mL
- AUC ([2]; human, plasma, oral, 100 mg, first dose, 100 mg BID monotherapy, read-out: INCB001158 geometric mean AUCtau): 13700 ng·h/mL
- Cmax ([2]; human, plasma, oral, 100 mg, first dose, 100 mg BID monotherapy): 1740 ng/mL
- Tmax ([2]; human, plasma, oral, 100 mg, first dose, 100 mg BID monotherapy, read-out: INCB001158 median tmax): 3.9 h
- AUC ([2]; human, plasma, oral, 100 mg, steady‐state, 100‐mg BID monotherapy, read-out: INCB001158 geometric mean AUCtau): 23200 ng·h/mL
- Cmax ([2]; human, plasma, oral, 100 mg, steady‐state, 100‐mg BID monotherapy): 2690 ng/mL
- Tmax ([2]; human, plasma, oral, 100 mg, steady‐state, 100‐mg BID monotherapy, read-out: INCB001158 median tmax): 3.8 h
- Tmax ([2]; human, plasma, po, 75 mg, first dose, 75 mg BID oral, n = 3, median (min, max), read-out: INCB001158 tmax): 3.9 h
- Tmax ([2]; human, plasma, po, 75 mg, steady-state, 75 mg BID oral, n = 3, median (min, max), read-out: INCB001158 tmax): 3.9 h
- Tmax ([2]; human, plasma, po, 100 mg, first dose, 100 mg BID oral, monotherapy n = 3, combination n = 6, median (min, max), read-out: INCB001158 tmax): 3.9 h
- Tmax ([2]; human, plasma, po, 100 mg, steady-state, 100 mg BID oral, monotherapy n = 3, combination n = 5, median (min, max), read-out: INCB001158 tmax): 3.8 h
- Vd/F ([2]; human, plasma, po, 100 mg, steady-state, 100 mg BID oral, monotherapy: two individual values (n = 2), combination n = 5 mean ± SD (geometric mean), read-out: INCB001158 Vz/F): 44.9 L
- half-life ([2]; human, plasma, po, 100 mg, steady-state, 100 mg BID oral, monotherapy: two individual values (n = 2), combination n = 5 mean ± SD (geometric mean), read-out: INCB001158 t½ (converted)): 6.25 h
- INCB001158 Vz/F [2, 6]: 39.3 L
- INCB001158 t½ [2, 6]: 5.50 h
- INCB001158 geometric mean Ctau ([2]; steady‐state, 100‐mg BID monotherapy): 1130 ng/mL
- Plasma arginine levels (arginase [3]): Immediate and consistent increases
- Urine orotic acid (urea cycle; change from baseline): no marked rises
- Symptoms of significant urea cycle inhibition (urea cycle; e.g., unexplained anorexia, nausea, vomiting): no symptoms
- Plasma ammonia (urea cycle; patients receiving INCB001158): no concurrent increases
- Urea cycle inhibition (urea cycle; patients receiving INCB001158): no evidence of consistent urea cycle inhibition
- DCR [4, 7]: 27%
- Number of PRs [4, 7]: 1
- ORR [4, 8]: 24%
- Patients with SD [4, 8]: 42%
- DCR [4, 9]: 30%
- Number of PRs [4, 9]: 3
- T‐cell proliferation in the presence of inhibitory granulocytes (T‐cell proliferation): restored T‐cell proliferation
- Plasma arginine levels (arginase [5]): increase in plasma arginine levels
